According to publication PMC11676671, “Simultaneous Down-Regulation of Dominant Cinnamoyl CoA Reductase and Cinnamyl Alcohol Dehydrogenase Dramatically Altered Lignin Content in Mulberry” (Plants, 2024):

Test system: T1, MaCCR1
T1 construct: full-length CDS in pET-28a, His-tagged, expressed in E. coli BL21(DE3)
Assay: absorbance decrease of substrate, microplate reader, non-linear fit
Assay type: biochemical, Morus alba
Excerpt: absorbance decrease of substrate, microplate reader, non-linear fit on MaCCR1

## COc1cc(/C=C/C(=O)SCCNC(=O)CCNC(=O)[C@H](O)C(C)(C)COP(=O)(O)OP(=O)(O)OC[C@H]2O[C@@H](n3cnc4c(N)ncnc43)[C@H](O)[C@@H]2OP(=O)(O)O)cc(OC)c1O [sinapyl-CoA]
pH and temperature of the kinetic assay not given
  Km: 160 µM

## COc1cc(/C=C/C(=O)SCCNC(=O)CCNC(=O)[C@H](O)C(C)(C)COP(=O)(O)OP(=O)(O)OC[C@H]2O[C@@H](n3cnc4c(N)ncnc43)[C@H](O)[C@@H]2OP(=O)(O)O)ccc1O [feruloyl CoA]
pH and temperature of the kinetic assay not printed (optimum pH 6.0, 20 °C with feruloyl CoA)
  Km: 62.6 µM
